The source of these data is article PMC10383864, “Novel 2-Sulfanylquinazolin-4(3H)-one Derivatives as Multi-Kinase Inhibitors and Apoptosis Inducers: A Synthesis, Biological Evaluation, and Molecular Docking Study” (Molecules, 2023).

For series [1], the system named is HepG2 cells. The experiment in a line: Annexin V-FITC/PI apoptosis assay. The series is classed as cell-based, human. The note with it: HepG2, 7.1 µM, 24 h. How it is done: In order to investigate apoptosis, the most cytotoxic compound in anti-proliferative assay 5d was further exposed to […] using the standard Annexin V/PI double staining procedure.
The apoptotic and necrotic effect of compound 5d was investigated using flow cytometry, as described in [43]. The HepG2 cells were treated with 7.1 µM of compound 5d for 24 h. After treatment, the cells were collected by trypsinization, centrifuged, and washed two times with PBS. A suspension of cells in 500 μL binding buffer was double stained with 5 μL Annexin V-FITC and 5 μL PI in the dark at room temperature for 15 min. The stained cells were measured using an Epics XL-MCL™ Flow Cytometer (Beckman Coulter), and the data were analyzed using Flowing software (version 2.5.1, Turku Centre for Biotechnology, Turku, Finland).

Another series has as its system Bax. As to the kind of experiment: RT-PCR of apoptosis-related genes in HepG2 cells. The class given is cell-based, human. The following applies: HepG2 cells treated with 5d, control = 1, increase. How it is done: (§1) RT-PCR reactions were carried out to investigate the relative gene expression of apoptosis-related genes, including the proapoptotic genes Bax, caspases 3 and 9, and the anti-apoptotic Bcl2 gene. […] Therefore, it can be concluded that the induction of apoptosis in HepG2 cells upon treatment with 5d is associated with the upregulation of proapoptotic genes and the downregulation of anti-apoptotic genes.
(§2) The level of apoptotic markers caspase-3, caspase-9, Bax, and Bcl-2 was measured using BIORAD iScript TM One-Step RT-PCR kit with SYBR® Green. According to the manufacturer’s instructions, the kit was used in three subsequent steps.
(§3) mRNA isolation of up to 1 × 10^7 cells was carried out using an RNeasy extraction kit. Cells were disrupted in RNeasy Lysis Buffer (RLT buffer) and homogenized. Ethanol was then added to make a lysate and provoke the selective binding of RNA to the RNeasy membrane. The sample was then applied to the RNeasy mini spin column, where total RNA binds to the membrane while contaminants pass through. The RNA was then eluted in RNase-free water.
(§4) All the following reagents were mixed to make about 50 μL mixture: 2X SYBR® Green RT-PCR reaction mixture (25 μL), forward primer (10 μM; 1.5 μL), reverse primer (10 μM; 1.5 μL), nuclease-free H2O (11 μL), RNA template (1 pg to 100 ng total RNA; 10 μL) and iScript reverse transcriptase for One-Step RT-PCR (1 μL).
(§5) The whole reaction mixture was incubated in a real-time thermal detection system (Rotorgene) as follows: cDNA synthesis (10 min at 50 °C), iScript reverse transcriptase inactivation (5 min at 95 °C), PCR cycling and detection (30–45 cycles):10 s at 95 °C and 30 s at 55 °C to 60 °C (data collection step) and melt curve analysis: 1 min at 95 °C, 1 min at 55 °C and 10 s at 55 °C–95 °C (80 cycles, increasing each by 0.5 °C each cycle).

A further series concerns Bcl2. The experiment in a line: RT-PCR of apoptosis-related genes in HepG2 cells. The series is classed as cell-based, human. The following applies: HepG2 cells treated with 5d, control = 1, downregulated. How it is done: as §1, §2, §3, §4, §5
The test system of the next series is caspase-3. As to the kind of experiment: RT-PCR of apoptosis-related genes in HepG2 cells. The class given is cell-based, human. The following applies: HepG2 cells treated with 5d, control = 1, increase. How it is done: as §1, §2, §3, §4, §5
Another series has as its system caspase-9. The experiment in a line: RT-PCR of apoptosis-related genes in HepG2 cells. The class given is cell-based, human. The note with it: HepG2 cells treated with 5d, control = 1, increase. How it is done:
as §1, §2, §3, §4, §5

A further series has as its target T1, EGFR (Homo sapiens, UniProt P00533).
T1 construct: purchased
The experiment in a line: Kinase inhibition, ELISA kit. The class given is biochemical. The note with it: mean ± SD of three experiments. How it is done:
The corresponding kinase inhibitory kit assays were used, and the results are expressed as IC50 values (µM), as presented in Table 2. […] Afterward, the plate was incubated at room temperature for 2.5 h and then washed with PBS. A total of 100 μL of the prepared biotin antibody was added and incubated at room temperature for an additional 1 h, and then 100 μL of streptavidin solution was added and incubated at room temperature for another 45 min. After washing, 100 μL of TMB substrate reagent was added and incubated for 30 min at room temperature. Finally, about 50 μL of the stop solution was added and then read at 450 nm immediately. A standard curve was drawn, with concentrations on the X-axis and absorbance on the Y-axis.

Series [2] deals with HepG2 cells. The experiment in a line: MTT cytotoxicity assay. The class given is cell-based, human. The following applies: Homo sapiens, HepG2, 24 h, 24 h treatment, mean ± SD of three experiments, read-out: In Vitro Cytotoxicity IC50 HepG2. How it is done: (§6) In addition, the safety profile of the 2-sulfanylquinazolin-4(3H)-one derivatives was evaluated against normal human cells (WI38) […]. The standard MTT (3-(4,5-dimethylthiazol-2-yl)-2,5 diphenyl tetrazolium bromide) colorimetric assay protocol was used, as described by Mosmann. […] The results were expressed as growth inhibitory concentration (IC50) values.
(§7) The cell lines were obtained from ATCC (American Type Culture Collection). […] After incubation, the cells were treated with different concentrations of the synthesized compounds and incubated for 24 h. Afterward, the cells were washed with PBS, and 20 µL of MTT solution at 5 mg/mL was added, all incubated for 4 h. The MTT solution was discarded, and 100 µL of dimethyl sulfoxide (DMSO) was added per well. […] The relative cell viability in percentage was calculated as (A570 of treated cells/A570 of untreated cells) × 100.
Background: Tetrazolium assays rely on reduction of a dye to a coloured formazan, in cell work by metabolically active cells.

For another series, the system named is HeLa cells. As to the kind of experiment: MTT cytotoxicity assay. The note with it: Homo sapiens, 24 h, 24 h treatment, mean ± SD of three experiments, read-out: In Vitro Cytotoxicity IC50 HeLa. The class given is cell-based, human. How it is done: as §6, §7
The subject of the next series is MCF-7 cells. As to the kind of experiment: MTT cytotoxicity assay. The series is classed as cell-based, human. The following applies: Homo sapiens, MCF7, 24 h, MCF-7, MTT, 24 h treatment, mean ± SD of three experiments; read-out: In Vitro Cytotoxicity IC50 MCF-7. How it is done:
as §6, §7

A further series has as its system MDA-MB-231 cells. As to the kind of experiment: MTT cytotoxicity assay. The series is classed as cell-based, human. The note with it: Homo sapiens, MDA-MB-231, 24 h, MDA-MB-231, MTT, 24 h treatment, mean ± SD of three experiments; read-out: In Vitro Cytotoxicity IC50 MDA-MB-231. How it is done:
as §6, §7

For another series, the system named is WI38 cells. The experiment in a line: MTT cytotoxicity assay, normal human cell line. The series is classed as cell-based. The note with it: 24 h treatment, mean ± SD of three experiments, read-out: In Vitro Cytotoxicity IC50 WI38. How it is done:
as §6, §7

The nature of series [3]: MTT cytotoxicity assay, normal human cell line. The note with it: human, WI38 cells (normal human cells), 24 h treatment, mean ± SD of three experiments, read-out: In Vitro Cytotoxicity IC50 WI38. The class given is cell-based. How it is done: as §6, §7

T1 sequence (P00533 25-1210): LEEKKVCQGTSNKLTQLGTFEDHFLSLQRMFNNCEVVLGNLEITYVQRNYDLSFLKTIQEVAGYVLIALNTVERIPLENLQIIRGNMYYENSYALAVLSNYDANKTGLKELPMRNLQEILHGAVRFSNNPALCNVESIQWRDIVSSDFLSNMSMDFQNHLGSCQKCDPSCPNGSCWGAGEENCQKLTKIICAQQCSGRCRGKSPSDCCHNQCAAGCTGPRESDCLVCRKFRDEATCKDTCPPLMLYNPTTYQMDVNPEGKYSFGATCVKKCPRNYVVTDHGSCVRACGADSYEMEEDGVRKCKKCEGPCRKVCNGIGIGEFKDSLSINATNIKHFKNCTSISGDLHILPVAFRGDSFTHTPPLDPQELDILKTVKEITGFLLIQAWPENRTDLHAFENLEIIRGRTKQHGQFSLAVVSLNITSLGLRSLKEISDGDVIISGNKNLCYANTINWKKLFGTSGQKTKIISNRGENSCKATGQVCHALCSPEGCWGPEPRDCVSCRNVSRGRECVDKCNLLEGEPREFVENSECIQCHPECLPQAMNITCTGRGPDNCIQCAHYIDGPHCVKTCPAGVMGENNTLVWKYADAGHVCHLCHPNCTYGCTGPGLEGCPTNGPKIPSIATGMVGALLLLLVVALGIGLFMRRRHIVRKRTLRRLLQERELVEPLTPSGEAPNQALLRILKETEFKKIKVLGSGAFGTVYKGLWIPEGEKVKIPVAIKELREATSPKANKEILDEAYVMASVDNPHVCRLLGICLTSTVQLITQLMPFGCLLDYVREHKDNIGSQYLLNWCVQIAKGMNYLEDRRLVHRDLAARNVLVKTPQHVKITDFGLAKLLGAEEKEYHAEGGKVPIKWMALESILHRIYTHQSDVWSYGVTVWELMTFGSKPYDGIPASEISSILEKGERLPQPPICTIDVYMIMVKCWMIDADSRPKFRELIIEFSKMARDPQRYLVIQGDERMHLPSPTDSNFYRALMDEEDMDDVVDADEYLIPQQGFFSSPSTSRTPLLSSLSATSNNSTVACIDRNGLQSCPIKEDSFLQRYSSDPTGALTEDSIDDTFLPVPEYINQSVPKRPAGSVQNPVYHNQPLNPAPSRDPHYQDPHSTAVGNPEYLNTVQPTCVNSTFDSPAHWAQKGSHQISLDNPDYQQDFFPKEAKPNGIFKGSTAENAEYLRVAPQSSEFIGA

For `Cc1ccc(-n2c(SCc3ccc(Cl)cc3)nc3ccc(F)cc3c2=O)cc1` [Compound 5d, 2-(4-Chloro-benzylsulfanyl)-6-fluoro-3-(4-methylArenyl)-3H-quinazolin-4-one], in the series on HepG2 cells [1] (control 1.45%), the “necrosis, % of cell population” value worked out at 3.08%. For the same molecule, the “total apoptosis, % of cell population” value in the series with HepG2 cells [1] (control 2.28%) was 28.04%. Moreover, the “gene expression of Bax, fold change” value in the series on Bax is on record as “three”. Also, in the series on Bcl2, the “expression of anti-apoptotic gene Bcl2, fold change” value turned out to be 0.4 fold. Moreover, the “gene expression of caspase-3, fold change” value in the series on caspase-3 is on record as “three”. The “gene expression of caspase-9, fold change” value in the series on caspase-9 is recorded as “two”. The IC50 against EGFR stood at 0.22 ± 0.013 µM; in the series with HepG2 cells [2] it was 7.1 ± 0.6 µM; in the series on HeLa cells, 6.38 ± 0.4 µM; with MCF-7 cells, 2.48 ± 0.2 µM; with MDA-MB-231 cells, 1.94 ± 0.1 µM; in the series with WI38 cells it was 64.3 ± 3.5 µM. In addition, the IC50 at 24 h in [3] worked out at 40.9 µM.

A word on the IC50: it is the point on the concentration scale where inhibition reaches its midpoint.
